Data reported in US7632414B2, “Process for suppressing the growth of green algae in aqueous systems” (priority 2003, dated 2009).

System: green algae
Details: after the pH of the water becomes 6.0 or more acidic on acid addition
Text: Experiments have also been carried out to add acid to suppress plankton.

## Cl [hydrochloric acid]
  growth of green algae in Dian Ci Lake water: totally inhibited
